The results in this text go back to patent EP1226809B1, “SKIN TEXTURE-IMPROVING AGENTS” (KYOWA HAKKO KOGYO CO., LTD., priority 1999, dated 2001).

Read-outs that look alike come from different tables or passages of the source.

In test [1] the test system is Human neonate-derived fibroblasts. The experiment in a line: Measurement of collagen synthesis-promoting activity on human fibroblasts (3H-glycine incorporation). The test is classed as cell-based. The settings on record: 300 µmol/l. The method, then: 201-271, Kodansha Scientific (1986).
Human neonate-derived fibroblasts (Sanko Junyaku Co., Ltd.) were suspended in DMEM containing 10% fetal bovine serum [Virology, 8, 396 (1959)] and cultured at 37°C in 5% CO2 to the stationary phase. To the resulting culture were added ^3H-labeled glycine and a test substance, followed by further culturing for 72 hours. After 500 µmol/l phenylmethanesulfonyl fluoride (PMSF) was added to the obtained culture, the cells and the medium were collected, followed by disruption with a sonicator to extract proteins. To the extract were added 100 µmol/l bovine serum albumin (BSA) and 10% trichloroacetic acid (TCA), and the resulting mixture was centrifuged at 3000 rpm for 5 minutes to collect the precipitate. […]
After the reaction mixture was separated by ultrafiltration (molecular weight: 10,000), the radioactivity of the protein fraction in the filtrate (CDP) was measured as the amount of newly synthesized collagen. Then, the radioactivity of the protein fraction which was not filtered (NCDP) was measured, and the collagen synthesis ratio was calculated according to equation 2. The relative collagen synthesis-promoting activity (the change in collagen synthesis) was calculated according to equation 3 as the relative value of the collagen synthesis ratio in the presence of a test substance based on the control. […]

The test system of a further test is collagenase I (MMP-1). As to conditions: 37°C, 4 hours. The method, then: Measurement of collagenase-inhibiting activity was carried out in the following manner according to the method described in Development and Application of Simple Microassay for Collagenase Activity; Nagai, et al., Inflammation, Vol. 4, p. 123-130, Nihon Igakukan (1984).
To 25 µl of a neutralization buffer (0.1 mol/l Tris hydrochloride, pH 7.5, 0.4 mol/l NaCl, 10 mmol/l CaCl2 and 0.04% NaN3) was added 25 µl of fluorescein isothiocyanate (FITC)-labeled collagen I (Cosmo Bio Co.) To the resulting mixture were further added 50 µl of collagenase I (MMP-1) (Cosmo Bio Co.) and a test sample dissolved in 10 µl of the neutralization buffer, followed by reaction at 37°C for 4 hours. To the reaction mixture was added 5 µl of a reaction terminating solution [80 mmol/l o-phenanthroline/50% (v/v) aqueous ethanol] to stop the reaction. To the resulting mixture was added 100 µl of a twice diluted neutralization buffer and the resulting mixture was allowed to stand at 35°C for 60 minutes. After cooling on ice for 5 minutes, 200 µl of 70% (v/v) aqueous ethanol was added to the mixture, followed by vigorous stirring for 5 minutes. The resulting mixture was centrifuged at 15,000 rpm at 4°C for 10 minutes to obtain the supernatant. By using a spectrophotofluorometer, the supernatant was irradiated with excitation light at 495 nm and emission light at 520 nm (A) was measured to determine the amount of decomposed collagen. The collagenase-inhibiting activity was calculated according to equation 4 by using data (B) obtained when purified water was employed in place of collagenase I and data (C) obtained when a neutralization buffer was employed in place of the test sample. Collagenase-inhibiting activity(%) = [(A)-(B)]/[(C)-(B)] × 100 [formula]

On to `Oc1cc(O)c2c(c1)O[C@H](c1ccc(O)c(O)c1)[C@H](O)[C@H]2c1c(O)cc(O)c2c1O[C@H](c1ccc(O)c(O)c1)[C@H](O)C2` [PB2, epicatechin-(4β→8)-epicatechin], for which, in test [1] (after 72 hours of culturing, control = 100), the “Relative collagen synthesis-promoting activity (%)” value stood at 120.8%. For the same compound, the “amount of collagen synthesized” value in test [1] (result in words, compared with control (=100%)) is “increased”. The results for the “Collagenase-inhibiting activity (%)” value with collagenase I (MMP-1) (100 µmol/l) and in the test on collagenase I (MMP-1) (1 mmol/l) were 69.4% and 100%, respectively.

Turning to `Oc1cc(O)c2c(c1)O[C@H](c1ccc(O)c(O)c1)[C@H](O)[C@H]2c1c(O)cc(O)c2c1O[C@H](c1ccc(O)c(O)c1)[C@H](O)[C@H]2c1c(O)cc(O)c2c1O[C@H](c1ccc(O)c(O)c1)[C@H](O)C2` [PC1, epicatechin-(4β→ 8)-epicatechin-(4β→8)-epicatechin], the results for the “Collagenase-inhibiting activity (%)” value in the test with collagenase I (MMP-1) (1 µmol/l), in the test on collagenase I (MMP-1) (10 µmol/l) and in the test on collagenase I (MMP-1) (100 µmol/l) were 17%, 37% and 100%, respectively.
